{"source": "paper PMC5218480", "about": "(PLoS ONE, 2017)", "system": "MV-4-11 cells", "experiment": "Gene expression microarray analysis (Affymetrix PrimeView) and GSEA", "format": "cell-based, human", "design": "RFU PODN (11730768_x_at) / Fold change /veh PODN (11730768_x_at) / RFU LINC00158 (11744669_a_at) / Fold change /veh LINC00158 (11744669_a_at) / RFU DUSP10 (11751237_a_at) / Fold change /veh DUSP10 (11751237_a_at) / RFU ID3 (11757404_x_at) / Fold change /veh ID3 (11757404_x_at) / RFU PLEKHG5 (11737974_s_at) / Fold change /veh PLEKHG5 (11737974_s_at) / RFU LRRC4B (11730491_at) / Fold change /veh LRRC4B (11730491_at) / RFU GIMAP4 (11747438_a_at) / Fold change /veh GIMAP4 (11747438_a_at) / RFU KRT8 (11758183_x_at) / Fold change /veh KRT8 (11758183_x_at) / RFU CNN1 (11734310_a_at) / Fold change /veh CNN1 (11734310_a_at) / RFU VPS37D (11726825_at) / Fold change /veh VPS37D (11726825_at) / RFU C10orf10 (11716522_x_at) / Fold change /veh C10orf10 (11716522_x_at) / RFU KIR2DL2 /// KIR2DL4 /// KIR2DL5A /// KIR2DL5B /// KIR2DS1 /// KIR2DS2 /// KIR2DS3 /// KIR2DS4 /// KIR3DL3 /// KIR3DL3 /// KIR3DS1 (11738374_at) / Fold change /veh KIR2DL2 /// KIR2DL4 /// KIR2DL5A /// KIR2DL5B /// KIR2DS1 /// KIR2DS2 /// KIR2DS3 /// KIR2DS4 /// KIR3DL3 /// KIR3DL3 /// KIR3DS1 (11738374_at) / RFU C1QL1 (11718748_at) / Fold change /veh C1QL1 (11718748_at) / RFU TMPRSS4 (11747572_a_at) / Fold change /veh TMPRSS4 (11747572_a_at) / RFU HAMP (11756126_x_at) / Fold change /veh HAMP (11756126_x_at) / RFU RNFT2 (11725882_a_at) / Fold change /veh RNFT2 (11725882_a_at) / RFU NR4A2 (11747474_a_at) / Fold change /veh NR4A2 (11747474_a_at) / RFU ABCC12 (11746883_a_at) / Fold change /veh ABCC12 (11746883_a_at) / RFU TMEM136 (11760407_x_at) / Fold change /veh TMEM136 (11760407_x_at) / RFU CLDN22 /// WWC2 (11732394_at) / Fold change /veh CLDN22 /// WWC2 (11732394_at) / RFU HLA-DPB1 (11760878_x_at) / Fold change /veh HLA-DPB1 (11760878_x_at) / RFU SPINT1 (11716480_a_at) / Fold change /veh SPINT1 (11716480_a_at) / RFU GAP43 (11754022_s_at) / Fold change /veh GAP43 (11754022_s_at) / RFU A4GNT (11735810_at) / Fold change /veh A4GNT (11735810_at) / RFU PRB3 (11715151_x_at) / Fold change /veh PRB3 (11715151_x_at) / RFU TUBB4B (11761932_at) / Fold change /veh TUBB4B (11761932_at) / RFU CAPN14 (11732068_a_at) / Fold change /veh CAPN14 (11732068_a_at) / RFU TMCC2 (11721928_a_at) / Fold change /veh TMCC2 (11721928_a_at) / RFU IRGQ (11745062_a_at) / Fold change /veh IRGQ (11745062_a_at) / RFU FAM174B (11720279_a_at) / Fold change /veh FAM174B (11720279_a_at) / RFU TMPRSS4 (11748680_a_at) / Fold change /veh TMPRSS4 (11748680_a_at) / RFU FAM212B (11763350_a_at) / Fold change /veh FAM212B (11763350_a_at) / RFU PLEKHG5 (11743358_a_at) / Fold change /veh PLEKHG5 (11743358_a_at) / RFU ZSCAN30 (11745921_a_at) / Fold change /veh ZSCAN30 (11745921_a_at) / RFU CMKLR1 (11741424_a_at) / Fold change /veh CMKLR1 (11741424_a_at) / RFU LOC101060620 /// MAPK8IP1 (11723275_at) / Fold change /veh LOC101060620 /// MAPK8IP1 (11723275_at) / RFU SPTSSB (11747773_x_at) / Fold change /veh SPTSSB (11747773_x_at) / RFU PRSS12 (11739890_at) / Fold change /veh PRSS12 (11739890_at) / RFU BIN1 (11741810_x_at) / Fold change /veh BIN1 (11741810_x_at) / RFU WNT11 (11732464_a_at) / Fold change /veh WNT11 (11732464_a_at) / RFU C10orf10 (11716521_a_at) / Fold change /veh C10orf10 (11716521_a_at) / RFU C5orf56 (11738089_at) / Fold change /veh C5orf56 (11738089_at) / RFU CYB561 (11721691_x_at) / Fold change /veh CYB561 (11721691_x_at) / RFU ANKRD19P (11752326_a_at) / Fold change /veh ANKRD19P (11752326_a_at) / RFU OR2T12 /// OR2T33 /// OR2T8 (11738714_s_at) / Fold change /veh OR2T12 /// OR2T33 /// OR2T8 (11738714_s_at) / RFU VCAN (11748164_a_at) / Fold change /veh VCAN (11748164_a_at) / RFU JSRP1 (11732532_at) / Fold change /veh JSRP1 (11732532_at) / RFU KRTAP10-11 (11738290_x_at) / Fold change /veh KRTAP10-11 (11738290_x_at) / RFU MYO3A (11730013_a_at) / Fold change /veh MYO3A (11730013_a_at) / RFU EBF3 (11725865_a_at) / Fold change /veh EBF3 (11725865_a_at) / RFU CAMK2N1 (11719241_x_at) / Fold change /veh CAMK2N1 (11719241_x_at) / RFU C5orf56 (11738088_a_at) / Fold change /veh C5orf56 (11738088_a_at) / RFU OLFML3 (11715873_a_at) / Fold change /veh OLFML3 (11715873_a_at) / RFU LOC100653217 /// NTM (11731650_a_at) / Fold change /veh LOC100653217 /// NTM (11731650_a_at) / RFU MAPK11 (11762145_a_at) / Fold change /veh MAPK11 (11762145_a_at) / RFU FIZ1 (11724087_x_at) / Fold change /veh FIZ1 (11724087_x_at) / RFU OASL (11726364_x_at) / Fold change /veh OASL (11726364_x_at) / RFU SOX15 (11748057_x_at) / Fold change /veh SOX15 (11748057_x_at) / RFU CD79A (11719716_a_at) / Fold change /veh CD79A (11719716_a_at) / RFU HIST1H1D (11736915_at) / Fold change /veh HIST1H1D (11736915_at) / RFU CASKIN2 (11723855_a_at) / Fold change /veh CASKIN2 (11723855_a_at) / RFU LOC730098 (11760151_x_at) / Fold change /veh LOC730098 (11760151_x_at) / RFU OR4N2 (11742367_at) / Fold change /veh OR4N2 (11742367_at) / RFU PRRT2 (11749266_a_at) / Fold change /veh PRRT2 (11749266_a_at) / RFU SNX32 (11753110_a_at) / Fold change /veh SNX32 (11753110_a_at) / RFU CDHR5 (11726645_a_at) / Fold change /veh CDHR5 (11726645_a_at) / RFU RCAN1 (11760418_a_at) / Fold change /veh RCAN1 (11760418_a_at) / RFU FAM167A (11723789_a_at) / Fold change /veh FAM167A (11723789_a_at) / RFU FAM26E (11764081_at) / Fold change /veh FAM26E (11764081_at) / RFU ISYNA1 (11749810_s_at) / Fold change /veh ISYNA1 (11749810_s_at) / RFU ACY1 (11761880_at) / Fold change /veh ACY1 (11761880_at) / RFU 11764098_at / Fold change /veh 11764098_at / RFU SAMD14 (11745864_x_at) / Fold change /veh SAMD14 (11745864_x_at) / RFU NPB (11741838_a_at) / Fold change /veh NPB (11741838_a_at) / RFU TMPRSS6 (11731388_a_at) / Fold change /veh TMPRSS6 (11731388_a_at) / RFU KRTAP10-2 (11738614_at) / Fold change /veh KRTAP10-2 (11738614_at) / RFU ARHGAP8 /// PRR5-ARHGAP8 (11727945_x_at) / Fold change /veh ARHGAP8 /// PRR5-ARHGAP8 (11727945_x_at) / RFU KRTAP5-7 /// NADSYN1 (11734609_at) / Fold change /veh KRTAP5-7 /// NADSYN1 (11734609_at) / RFU RASL12 (11751679_a_at) / Fold change /veh RASL12 (11751679_a_at) / RFU CDKN2B (11736163_a_at) / Fold change /veh CDKN2B (11736163_a_at) / RFU PRF1 (11729649_at) / Fold change /veh PRF1 (11729649_at) / RFU, ZNF638 /// ZNF638-IT1 / Fold change vs veh, ZNF638 /// ZNF638-IT1 / RFU, PANK3 / Fold change vs veh, PANK3 / RFU, SH3YL1 / Fold change vs veh, SH3YL1 / RFU, ZEB2 / Fold change vs veh, ZEB2 / RFU, NRIP1 / Fold change vs veh, NRIP1 / RFU, PTTG1IP / Fold change vs veh, PTTG1IP / RFU, CAPN2 / Fold change vs veh, CAPN2 / RFU, MED14 / Fold change vs veh, MED14 / RFU, SNORA58 / Fold change vs veh, SNORA58 / RFU, C1orf63 / Fold change vs veh, C1orf63 / RFU, LRRFIP1 / Fold change vs veh, LRRFIP1 / RFU, NDUFAF7 / Fold change vs veh, NDUFAF7 / RFU, SLC12A2 / Fold change vs veh, SLC12A2 / RFU, IBTK / Fold change vs veh, IBTK / RFU, ESF1 / Fold change vs veh, ESF1 / Fold change vs veh, TMEM50B / RFU, TAOK1 / Fold change vs veh, TAOK1 / RFU, ACBD3 / Fold change vs veh, ACBD3 / RFU, TMA16 / Fold change vs veh, TMA16 / RFU, RWDD3 / Fold change vs veh, RWDD3 / RFU, BCAT1 / Fold change vs veh, BCAT1 / RFU, EDEM3 / Fold change vs veh, EDEM3 / RFU, TMEM33 / Fold change vs veh, TMEM33 / RFU, WDR75 / Fold change vs veh, WDR75 / RFU, AHCTF1 / Fold change vs veh, AHCTF1 / RFU, TFRC / Fold change vs veh, TFRC / RFU, ZDHHC17 / Fold change vs veh, ZDHHC17 / RFU, NOM1 / Fold change vs veh, NOM1 / RFU, ARL8B / Fold change vs veh, ARL8B / RFU, ZBTB11 / Fold change vs veh, ZBTB11 / RFU, TAMM41 / Fold change vs veh, TAMM41 / RFU, KIAA1704 /// LOC100996395 / Fold change vs veh, KIAA1704 /// LOC100996395 / RFU, ING1 / Fold change vs veh, ING1 / RFU, TRMT61B / Fold change vs veh, TRMT61B / RFU, FUBP3 / Fold change vs veh, FUBP3 / RFU, TP53 / Fold change vs veh, TP53 / RFU, TNKS2 / Fold change vs veh, TNKS2 / RFU, ZFP14 / Fold change vs veh, ZFP14 / RFU, ACTR2 / Fold change vs veh, ACTR2 / RFU, PPP3R1 / Fold change vs veh, PPP3R1 / RFU, PIK3R1 / Fold change vs veh, PIK3R1 / RFU, HNRNPA1 / Fold change vs veh, HNRNPA1 / RFU, RNF170 / Fold change vs veh, RNF170 / RFU, ZNF28 / Fold change vs veh, ZNF28 / RFU, RNGTT / Fold change vs veh, RNGTT / RFU, OGT / Fold change vs veh, OGT / RFU, BRD1 / Fold change vs veh, BRD1 / RFU, MARS / Fold change vs veh, MARS / RFU, ZNF655 / Fold change vs veh, ZNF655 / RFU, FAHD1 / Fold change vs veh, FAHD1 / RFU, BDP1 / Fold change vs veh, BDP1 / RFU, LRRCC1 / Fold change vs veh, LRRCC1 / RFU, ARID1A / Fold change vs veh, ARID1A / RFU, ZNF146 / Fold change vs veh, ZNF146 / RFU, ZNF330 / Fold change vs veh, ZNF330 / RFU, GPN3 / Fold change vs veh, GPN3 / RFU, C9orf123 / Fold change vs veh, C9orf123 / RFU, N4BP2L2 / Fold change vs veh, N4BP2L2 / RFU, ARFIP1 / Fold change vs veh, ARFIP1 / RFU, FAM179B / Fold change vs veh, FAM179B / RFU, BCL10 / Fold change vs veh, BCL10 / RFU, UHRF1BP1L / Fold change vs veh, UHRF1BP1L / RFU, BET1 / Fold change vs veh, BET1 / RFU, CNOT2 / Fold change vs veh, CNOT2 / RFU, ZNF268 / Fold change vs veh, ZNF268 / Fold change vs veh, ZNF507 / RFU, DGCR2 / Fold change vs veh, DGCR2 / RFU, WDSUB1 / Fold change vs veh, WDSUB1 / Fold change vs veh, HSP90B1 /// MIR3652 / RFU, ADSS / Fold change vs veh, ADSS / RFU, GK / Fold change vs veh, GK / RFU, ZNF148 / Fold change vs veh, ZNF148 / RFU, TAF9 / Fold change vs veh, TAF9 / RFU, SLC1A5 / Fold change vs veh, SLC1A5 / RFU, SLMO2 / Fold change vs veh, SLMO2 / RFU, ABCC4 / Fold change vs veh, ABCC4 / RFU, LOC101060439 /// RAP1B / Fold change vs veh, LOC101060439 /// RAP1B / RFU, RFX7 / Fold change vs veh, RFX7 / RFU, GTPBP10 / Fold change vs veh, GTPBP10 / RFU, CNEP1R1 / Fold change vs veh, CNEP1R1 / RFU, BIVM-ERCC5 /// ERCC5 / Fold change vs veh, BIVM-ERCC5 /// ERCC5 / RFU, ILF3 / Fold change vs veh, ILF3 / RFU 11762660_at / Fold change /veh 11762660_at / RFU VCAN (11757783_s_at) / Fold change /veh VCAN (11757783_s_at) / RFU DDX43 (11728927_at) / Fold change /veh DDX43 (11728927_at) / RFU KRT8 (11758188_x_at) / Fold change /veh KRT8 (11758188_x_at) / RFU NKD1 (11759106_at) / Fold change /veh NKD1 (11759106_at) / RFU SRD5A1 (11742802_a_at) / Fold change /veh SRD5A1 (11742802_a_at) / RFU TPSAB1 /// TPSB2 (11721975_s_at) / Fold change /veh TPSAB1 /// TPSB2 (11721975_s_at) / RFU GSTM3 (11746129_a_at) / Fold change /veh GSTM3 (11746129_a_at) / RFU IL23R (11737362_x_at) / Fold change /veh IL23R (11737362_x_at) / RFU TMEM51 (11727254_a_at) / Fold change /veh TMEM51 (11727254_a_at) / RFU PIWIL2 (11732686_x_at) / Fold change /veh PIWIL2 (11732686_x_at) / RFU ORM1 (11744905_x_at) / Fold change /veh ORM1 (11744905_x_at) / RFU CCDC152 (11743942_at) / Fold change /veh CCDC152 (11743942_at) / RFU ECM1 (11717891_a_at) / Fold change /veh ECM1 (11717891_a_at) / RFU IL23R (11748794_a_at) / Fold change /veh IL23R (11748794_a_at) / RFU TNFAIP8L3 (11732012_x_at) / Fold change /veh TNFAIP8L3 (11732012_x_at) / RFU MBOAT4 (11741988_at) / Fold change /veh MBOAT4 (11741988_at) / RFU 11764193_at / Fold change /veh 11764193_at / RFU TMEM53 (11763286_at) / Fold change /veh TMEM53 (11763286_at) / RFU MAGEB2 (11727129_at) / Fold change /veh MAGEB2 (11727129_at) / RFU TMEM200A (11744735_a_at) / Fold change /veh TMEM200A (11744735_a_at) / RFU CCDC152 (11751479_a_at) / Fold change /veh CCDC152 (11751479_a_at) / RFU FAM211A (11726209_a_at) / Fold change /veh FAM211A (11726209_a_at) / RFU RGS16 (11746705_a_at) / Fold change /veh RGS16 (11746705_a_at) / RFU VCAN (11755009_s_at) / Fold change /veh VCAN (11755009_s_at) / RFU RHOB (11743442_s_at) / Fold change /veh RHOB (11743442_s_at) / RFU RGS16 (11720943_a_at) / Fold change /veh RGS16 (11720943_a_at) / RFU RGS16 (11720944_at) / Fold change /veh RGS16 (11720944_at) / RFU, VPS4B / Fold change vs veh, VPS4B / RFU, CREB1 / Fold change vs veh, CREB1 / RFU, DNAJC13 / Fold change vs veh, DNAJC13 / RFU, GNAQ / Fold change vs veh, GNAQ / RFU, CDK5R1 / Fold change vs veh, CDK5R1 / RFU, ZRANB3 / Fold change vs veh, ZRANB3 / RFU, CUL4A / Fold change vs veh, CUL4A / RFU, CCNY / Fold change vs veh, CCNY / RFU, UFL1 / Fold change vs veh, UFL1 / RFU, COG3 / Fold change vs veh, COG3 / RFU, DIAPH2 / Fold change vs veh, DIAPH2 / RFU, SKA2 / Fold change vs veh, SKA2 / RFU, AFF3 / Fold change vs veh, AFF3 / RFU, LMF1 / Fold change vs veh, LMF1 / RFU, IPO11 / Fold change vs veh, IPO11 / RFU, DFFB / Fold change vs veh, DFFB / RFU, FOXP1 / Fold change vs veh, FOXP1 / RFU, CARD8 / Fold change vs veh, CARD8 / RFU, STRN3 / Fold change vs veh, STRN3 / RFU, ADK / Fold change vs veh, ADK / RFU, RASSF2 / Fold change vs veh, RASSF2 / RFU, WIPF1 / Fold change vs veh, WIPF1 / RFU, LARP1B / Fold change vs veh, LARP1B / RFU, RASA1 / Fold change vs veh, RASA1 / RFU, RB1 / Fold change vs veh, RB1 / RFU, PPFIA1 / Fold change vs veh, PPFIA1 / RFU, MAT2A / Fold change vs veh, MAT2A / RFU, CCT5 / Fold change vs veh, CCT5 / RFU, WDR92 / Fold change vs veh, WDR92 / RFU, CUX1 / Fold change vs veh, CUX1 / RFU, TTC7A / Fold change vs veh, TTC7A / RFU, TMEM135 / Fold change vs veh, TMEM135 / RFU, DEPTOR / Fold change vs veh, DEPTOR / RFU, CPM / Fold change vs veh, CPM / RFU, DNAJB6 / Fold change vs veh, DNAJB6 / RFU, CACNA2D3 / Fold change vs veh, CACNA2D3 / RFU, DTX4 / Fold change vs veh, DTX4 / RFU, TFCP2 / Fold change vs veh, TFCP2 / RFU, GMCL1 /// GMCL1P1 / Fold change vs veh, GMCL1 /// GMCL1P1 / RFU, AEBP2 / Fold change vs veh, AEBP2 / RFU, SNHG1 /// SNORD22 /// SNORD25 /// SNORD26 /// SNORD27 /// SNORD28 /// SNORD29 /// SNORD31 / Fold change vs veh, SNHG1 /// SNORD22 /// SNORD25 /// SNORD26 /// SNORD27 /// SNORD28 /// SNORD29 /// SNORD31 / Fold change (Aza/veh), C12orf56 (ProbeSet 11735607_a_at) / Fold change (ACY-1035/veh), C12orf56 (ProbeSet 11735607_a_at) / Fold change (Aza/veh), FGFR1OP (ProbeSet 11751329_s_at) / Fold change (ACY-1035/veh), FGFR1OP (ProbeSet 11751329_s_at) / Fold change (Aza/veh), VPS36 (ProbeSet 11739960_a_at) / Fold change (ACY-1035/veh), VPS36 (ProbeSet 11739960_a_at) / RFU SYPL1 (11715823_x_at) / Fold change /veh SYPL1 (11715823_x_at) / RFU IGFBP7 (11715501_s_at) / Fold change /veh IGFBP7 (11715501_s_at) / RFU REEP3 (11722064_at) / Fold change /veh REEP3 (11722064_at) / RFU IGLL1 (11728026_x_at) / Fold change /veh IGLL1 (11728026_x_at): dose or concentration left out as unconfirmed", "conditions": "ProbeSet 11731093_s_at; LIST B"}
{"smiles": "Nc1ncn([C@@H]2O[C@H](CO)[C@@H](O)[C@H]2O)c(=O)n1", "note": "[azacitidine]", "values": [{"measurement": "Fold change vs veh, BRD1", "value": 0.85}]}
